The results in this text go back to patent publication US6362337B1, “Substituted phenyluracils” (Bayer Aktiengesellschaft, priority 1997, dated 2002).

Data set [1] relates to weeds. The data set can be described thus: Post-emergence test, action against weeds. It counts as in vivo. Particulars: test plants 5-15 cm sprayed, rated after three weeks vs untreated control. As to the method: (§1) To produce a suitable preparation of active compound, 1 part by weight of active compound is mixed with the stated amount of solvent, the stated amount of emulsifier is added and the concentrate is diluted with water to the desired concentration.
Test plants having a height of 5-15 cm are sprayed with the preparation of active compound such that the particular amounts of active compound desired are applied per unit area. The concentration of the spray liquor is chosen so that the particular amounts of active compound desired are applied in 1000 l of water/ha.
(§2) After three weeks, the degree of damage to the plants is rated in % damage in comparison with the development of the untreated control.
(§3) 0%=no effect (like untreated control)

The test system of data set [2] is weeds. The data set is described as follows: Pre-emergence test, action against weeds. It counts as in vivo. The conditions noted are these: soil sprayed about 24 hours after sowing, rated after three weeks vs untreated control. As to the method:
as §1
Seeds of the test plants are sown in normal soil. After about 24 hours, the soil is sprayed with the preparation of active compound such that the particular amounts of active compound desired are applied per unit area. The concentration of the spray liquor is chosen so that the particular amounts of active compound desired are applied in 1000 l of water/ha.
as §2, §3

By melting point is commonly meant the temperature, or range, at which the solid turns liquid.

`CCOC(=O)c1cc(-n2c(=O)cc(C(F)(F)F)n(C)c2=O)ccc1OC(C)=O` [Example 2, 3-(4-acetoxy-3-ethoxycarbonyl-phenyl)-1-methyl-6-trifluoromethyl-1,2,3,4-tetrahydro-1H-pyrimidine-2,4-dione]: the melting point was 148 °C. Besides, in data set [1], the “action against weeds (degree of damage to the plants)” value (shortened to “action against weeds”) was “very strong action against weeds”. The “action against weeds” value in data set [2] is reported as “very strong action against weeds”.
Take `CCOC(=O)c1cc(-n2c(=O)cc(C(F)(F)F)[nH]c2=O)ccc1OC(C)=O` [Example 1, 3-(4-acetoxy-3-ethoxycarbonyl-phenyl)-6-trifluoromethyl-1,2,3,4-tetrahydro-1H-pyrimidine-2,4-dione]: the melting point was 155 °C.
`CCOC(=O)c1cc(-n2c(=O)cc(C(F)(F)F)n(N)c2=O)ccc1OC(C)=O` [Example 3, 1-amino-3-(4-acetoxy-3-ethoxycarbonyl-phenyl)-6-trifluoromethyl-1,2,3,4-tetrahydro-1H-pyrimidine-2,4-dione] displayed a melting point of 190 °C. In data set [1], the “action against weeds” value is reported as “very strong action against weeds”. In data set [2], the “action against weeds” value is given as “very strong action against weeds”.
